Assay results published in patent US8007779B2, “Nucleic acid constructs and cells, and methods utilizing same for modifying the electrophysiological function of excitable tissues” (GeneGrafts Ltd., priority 2000, dated 2011).
“And” between values parts separate entries of the source, which are not always exact repeats. Equal entries are not always repeated. “Also recorded” adds a separate entry of the source.

Experiments:
[1] = tested on: cultured neuronal network; experiment: Spiking activity of cultured cortical neuronal network on multi-electrode array (MEA); assay type: cell-based, rat; settings: 5 μM bicuculin, 10 μM DNQX or 20 μM APV added to the culture
Experimental: Cortical neurons were obtained from newborn rats within 24 hours from birth, following standard harvesting procedures (Culturing nerve cells, 2nd edition, Gary Ranker and Kimberly Goslin, 1998). The cortex tissue was digested enzymatically and mechanically dissociated and the neurons were plated directly onto substrate-integrated multi-electrode array (MEA) dishes prepared as described below. The cultures were bathed in MEM which was supplemented with heat-inactivated horse serum (5%), Glutamine (0.5 mM), Glucose (20 mM), and Gentamycin (10 μg/ml), and maintained in a tissue culture incubator at 37° C., 5% CO2 and 95% during the recording phases. Half of the medium was exchanged twice a week and the experiments were performed during the third week following plating, thus allowing complete maturation of the neurons (FIGS. 1a-b).
Arrays of 60 Ti/Au/TiN electrodes, 30 μm in diameter, spaced 200 μm from each other (MultiChannelSystems (MCS), Reutlingen, Germany) were utilized in the present study. The insulation layer (silicon nitride), was pretreated with poly-L-lysine forming a good surface for network development. A commercial 60-channel amplifier (B-MEA-1060, MCS, Reutlingen, Germany) with frequency limit range of 10-3000 Hz and a gain of ×1024 was utilized for signal amplification. The amplifier was connected to MCPPlus filter amplifiers (Alpha Omega, Nazareth, Israel) for further amplification (×10 to ×20). Stimulation through the MEA was performed using a dedicated 8-channel stimulus generator (MCS, Reutlingen, Germany).
In addition, the micro-incubation environment was arranged to support long-term recordings from MEA dishes. This was achieved by streaming a filtered, heated and humidified air/CO2 (95/5%) gas mixture, and by electrically heating the MEA platform to 37° C. Data is digitized using two 5200a/526 A/D boards (Microstar Laboratories, WA, USA).
Following electrical functionality determination, the neuronal network cultures were incubated with various electrical conduction blockers.

[2] = tested on: neonatal rat (Sprague Dawley) ventricular myocytes; experiment: Spontaneous beating rate of neonatal rat ventricular myocyte/fibroblast co-cultures (MEA), with CTx; assay type: cell-based
Excerpt: Cell co-culturing—Primary monolayer cultures of neonatal rat (Sprague Dawley) ventricular myocytes were generated as previously described [Nuss H B, Marban E, Johns D C. Overexpression of a human potassium channel suppresses cardiac hyperexcitability in rabbit ventricular myocytes. J Clin Invest. 1999; 103:889-96]. Briefly, following excision, the ventricles were minced and treated with RDB (IIBR, Ness-Ziona, Israel). Following centrifugation, dispersed cells were suspended in culture medium (Ham's F10), 5% fetal calf serum, 5% horse serum, 100 U/ml penicillin, […] streptomycin (all from Biological industries, Beit Haemek, Israel), 1 mM CaCl2 and 50 mg/100 ml bromodeoxyuridine (BrdU, Sigma). The cells were then cultured on gelatin coated (0.1%) microelectrode culture plates at a density of 1.5×10^6 cells/ml.
Once a well synchronous spontaneous activity was established in the cardiomyocyte cultures, fibroblasts (naïve, or Kv1.3 expressing fibroblasts) were seeded in a diffuse manner into the cardiomyocytic cultures. Two groups were studied: The cultures were studied daily, and the electrophysiological properties, essentially the spontaneous beating rate of the culture, was assessed at baseline and following application of the specific Kv1.3 blocker, Charybdotoxin (CTx), at increasing dosages (1, 10, 100 nM). […]

[3] = tested on: neonatal rat ventricular cardiomyocytes (NRVM); experiment: Synchronous activity, conduction block, conduction velocity and signal amplitude of cardiomyocyte/fibroblast co-cultures on MEA; assay type: cell-based
Experimental: (§1) Monolayer cultures of neonatal rat ventricular cardiomyocytes (NRVM) were prepared as previously described (Rubin et al, 1995), with some modifications. The cultures were maintained in a humidified incubator under a controlled environment of 5% CO2+95% air at 37° C.; fresh medium was replaced on alternating days.
(§2) Fibroblasts from the NIH 3T3 cell line were transfected with an expression cassette which included a mutant voltage gated potassium channel (Kv1.3) coding sequence (GeneBank Accession number H18261) placed under the transcription control of a constitutive promoter using standard procedures. Fibroblast cultures not transfected with the channel coding sequence were produced from the NIH 3T3 cell-line.
(§3) Once well synchronous spontaneous activity was established in the cardiomyocyte cultures, fibroblasts transfected with the Kv1.3 channel coding sequence or non-transfected fibroblasts were added to the cultures. Two different methods where used to seed the fibroblasts. In the first method, the fibroblast were suspended in trypsin for 5 minutes following which they were seeded in a diffuse pattern in the cardiomyocytic cultures (FIG. 4a). In the second method, the fibroblasts where pipetted up and down through a 5 ml pipette for 2 minutes and seeded in the cardiomyocytic cultures thus were forming clusters of fibroblasts (FIG. 4b).
(§4) Extracellular recordings from cultured cardiomyocytes were performed on a PC-based Microelectrode Data Acquisition System (Multi Channel Systems, Reutlingen, Germany), consisting of Multi-Electrode Array (MEA), pre- and filter-amplifiers, data acquisition board, and software. The MEA consists of a 50×50 mm glass substrate, in the center of which is an embedded 0.7×0.7 or 1.4×1.4 mm matrix of 60 Titanium-nitride, gold contacts 10 or 30 μm diameter electrodes insulated with silicone nitride, with inter-electrode distance of 100 or 200 μm (there are no electrodes in the corners of the matrix). Data were recorded at 10-25 KHz with 12-bit precision. During the recording sessions, the MEA (removed from the regular incubator) was constantly perfused with a gas mixture consisting of 5% CO2+95% air. Temperature was kept at 37±0.10° C.
Recorded data was filtered using cutoff frequency of 2 KHz (Fast et al, 1993). The filtered signal was then differentiated digitally to determine the Local Activation Time (LAT) at each electrode, corresponding to dF/dtmin (where F is the filtered signal) (Dolber and Spach, 1986). Color-coded activation maps were constructed by interpolating the LAT values for the sites between the electrodes, and by extrapolating the LAT values for the 4 corners of the MEA matrix. Activation maps were plotted by means of Matlab standard 2-d plotting function (pcolor) (Matlab 5.3 Mathworks Incorporated©). Conduction velocity was calculated by standard methods (Bayly et al, 1988).
Conduction block quantification is central to evaluating conduction block development in the cell cultures, and to evaluating reversibility of the conduction block following CTX application. A conduction block was determined using the following algorithm: […]
Electrical activity of the cultures was recorded on day one immediately prior to seeding of the fibroblasts and then daily until the cultures died or no spontaneous activity was detected. […]

[4] = tested on: cardiomyocytes co-cultured with fibroblasts (NIH 3T3) transfected with voltage gated potassium channel Kv1.3; experiment: Spontaneous activity rate of cardiomyocyte cultures and fibroblast co-cultures on MEA under CTX; assay type: cell-based, rat
Experimental: as §1, §2, §3, §4
Electrical activity of the cultures was recorded on day one immediately prior to seeding of the fibroblasts and then daily until the cultures died or no spontaneous activity was detected. During the daily measurements the cultures where subjected to increasing concentrations (0.1, 1, 10, 100 nM) of CTX.
Measurement were performed during spontaneous activity from three groups of cardiomyocyte cultures: cultures without fibroblasts, cultures with NIH 3T3 fibroblasts (seeded diffusely) and cultures with transfected NIH 3T3 fibroblasts (expressing the mutant voltage gated potassium channel coding sequence).

[5] = tested on: left ventricular myocardium; experiment: In vivo local ventricular effective refractory period (ERP) after cell grafting, rat model; settings: for local ventricular ERP at the site of cell transplantation after MTx: study group (Kv1.3 fibroblasts, n=10), mean±SEM (FIG. 19b)
Experimental: Rat model—Male Sprague-Dawley rats weighing 200-250 gr were anesthetized using A Xylasine (0.5 mg/kg) and Ketamine (0.5 mg/kg) preparation [see Example 7]. The animals were then intubated and ventilated using a Harvard small-animal mechanical respirator. The chest wall was opened using a left thoracotomy and the heart was exposed. After removal of the pericardium, a total of 6×10^6 cells (either fibroblasts without transfections in the control group or fibroblast overexpressing the KV1.3 channel in the study group) were transplanted into the anterior aspect of the left ventricular wall using a 28 g needle. In order to prevent graft rejection, all animals were treated with a daily dose of cyclosporin (10 mg/kg) and methyprednisolone (2 mg/kg). The animals underwent a detailed electrophysiological study (see below) immediately before cell grafting and 7 days post-transplantation.
In vivo electrophysiological studies—The electrophysiological study in rats included a standard ventricular pacing protocol to determine the local myocardial effective refractory period (ERP). The ERP was evaluated by applying a train of 20 stimuli at a fixed cycle-length of 200 ms (S1), followed by a single premature stimulus (S2). The S1-S2 coupling interval was gradually shortened. The ERP was determined as the shortest S1-S2 coupling interval still capable of eliciting a ventricular response. Stimuli were generated using a computer controlled STG 1004 stimulus generator with the matching MC-Stim software (both from Multi Channel Systems, Reutlingen, Germany).
The ERP was measured at the site of cell transplantation and at remote sites, both prior to cell transplantation and seven days following cell grafting. In order to dissect the role of the overexpressed channel in altering the local myocardial electrophysiological properties, the ERP was measured also at each site following application of 9 μg/kg of Margatoxin (Alomone Labs, Jerusalem, Israel), a specific Kv 1.3 channel blocker as an intraperitoneal bolus.

[6] = tested on: right ventricular free wall; experiment: In vivo local ventricular effective refractory period (ERP) after cell grafting, swine model; set-up: species or system pig; settings: for ventricular ERP following local application of MTx: swine, sites grafted with transfected fibroblasts, all CLs (FIG. 20b)
Experimental: Swine model—Three domestic pigs (20-30) kg were studied. Anesthesia was induced with 5-10 ml of intravenous sodium pentothal 2.5% solution and maintained with inhaled isoflurane (2%) in oxygen. Following a right thoracotomy, each heart was exposed and a total of 6×10^6 cells were transplanted at a total of 7 different locations in the anterior free wall of the right ventricle. Cells were delivered using a 25 g needle using an injection volume of 250 μl. The sites of cell transplantation were marked with a suture. To prevent graft rejection, the animals were treated with an immunosuppressive regimen (cyclosporine, 10 mg/kg/d and methylprednisolone, 3 mg/kg/d). 7 days following cell transplantation, a second thoracotomy and a detailed epicardial electrophysiological study were performed.
The ERP in the pigs was measured in a similar manner to that in the rats but using slower basic stimulation intervals (CLs of 350, 400 and 500 ms). The ERP was measured at the site of cell transplantation as well as in remote sites and also following local intramyocardial injection of Margatoxin at the examined sites.

Compound: O=[N+]([O-])c1cc2nc(O)c(O)nc2cc1[N+](=O)[O-] [DNQX]
- spiking activity in cultured neuronal network [1]: completely abolished

Compound: N[C@H](CCCP(=O)(O)O)C(=O)O [APV, D-2-amino-5-phosphonovalerate]
- spiking activity in cultured neuronal network [1]: completely abolished

Compound: Charybdotoxin (QFTNVSCTTSKECWSVCQRLHNTSRGKCMNKKCRCYS) [CTX]
- beating frequency after CTx application ([2]; control group (naive fibroblasts)): did not significantly alter
- reversibility of the negative chronotropic effect by CTx ([2]; study group (Kv1.3 transfected fibroblasts), CTx 100 nM (FIG. 18b)): full reversibility
- activation map after CTX ([3]; co-culture with non-transfected fibroblasts, five days after seeding, CTX 10 nM (FIG. 12d)): no appreciable change
- conduction block factor after Charybdotoxin ([3]; co-cultures including fibroblasts transfected with Kv1.3, n=10 (FIG. 11)): substantially decreased
- conduction block factor after Charybdotoxin ([3]; co-cultures including non-transfected fibroblasts, n=9 (FIG. 11)): minimal response
- conduction block after CTX treatment ([3]; co-cultures with Kv1.3 transfected fibroblasts, CTX 10 nM (FIG. 7d)): reversal; also recorded: reversed
- uncoupling effect after CTX treatment ([3]; co-cultures with Kv1.3 transfected fibroblasts, CTX 100 nM (FIGS. 6f-g)): reversed
- increase in spontaneous activity rate ([4]; CTX 10 nM, cardiomyocyte cultures or cardiomyocytes co-cultured with untransfected fibroblasts): did not increase
- increase in spontaneous activity rate ([4]; CTX 10 nM, co-cultures which included the Kv1.3 transfected fibroblasts): 20%
- increase in spontaneous activity rate ([4]; CTX 100 nM, cardiomyocyte cultures or cardiomyocytes co-cultured with untransfected fibroblasts): up to 15%
- increase in spontaneous activity rate ([4]; CTX 100 nM, co-cultures which included the Kv1.3 transfected fibroblasts): 55%

Compound: Margatoxin (TIINVKCTSPKQCLPPCKAQFGQSAGAKCMNGKCKCYPH)
- local ERP after administration of Mtx ([5]; control group grafted with naive fibroblasts (n=8)): did not change significantly
- ventricular ERP at the site of cell grafting after Margatoxin ([5]; one animal grafted with Kv1.3 fibroblasts, basic CL 200 ms (FIG. 19a)): reversed and 100 ms
- local ventricular ERP at the site of cell transplantation after MTx [5]: 117 ± 7.70 ms
- local ventricular ERP at the site of cell transplantation after MTx ([5]; listed as MTx): 117 ± 8 ms
- local ERP after local application of MTx ([6]; pig grafted with transfected cells, basic CL drive 400 ms (FIG. 20a)): 220 ms
- ventricular ERP following local application of MTx [6]: near baseline values
- ventricular ERP following local application of MTx ([6]; listed as MTx): not different from the control sites

Compound: CN1CCc2cc3c(cc2[C@H]1[C@@H]1OC(=O)c2c1ccc1c2OCO1)OCO3 [bicuculin]
- spiking activity in cultured neuronal network [1]: completely abolished
